# Patent US20230085307A1, “PYRIDAZINONE COMPOUND AND HERBICIDE” (NISSAN CHEMICAL CORPORATION, priority 2019, published 2023)
# Experiments:
# barnyard grass [1] = assay: Test Example 3: herbicidal effect by foliage application, Wagner pot (Table 18, symbol H); format: in vivo, barnyard grass (Echinochloa crus-galli); details: 320 g/ha
# How it was run: (§1)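 Plants were sown in alluvial soil held under 0.1–0.5 cm standing water and grown 14 days in a greenhouse at 25–30 °C. An emulsifiable formulation, water-diluted to the set dose, was then sprayed onto the foliage, and effects were scored three weeks later using previously defined criteria.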
# Chinese sprangletop = assay: Test Example 3: herbicidal effect by foliage application, Wagner pot (Table 18, symbol D); format: in vivo, chinese sprangletop (Leptochloa chinensis); details: 320 g/ha
# How it was run: as §1
# rice flat sedge = assay: Test Example 3: herbicidal effect by foliage application, Wagner pot (Table 18, symbol E); format: in vivo, rice flat sedge (Cyperus iria); details: 320 g/ha
# How it was run: as §1
# southern crabgrass [2] = assay: Test Example 4: herbicidal effect by soil treatment (Table 19, symbol F); format: in vivo, southern crabgrass (Digitaria ciliaris); details: AAH 320 g/ha
# How it was run: (§2)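 Emulsion of test compound, water-diluted to predetermined amount, sprayed on soil after sowing (seed depth ~1.5 cm, sterilized diluvial soil). Greenhouse, 25–30° C. Effect graded at three weeks post-spray.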
# green foxtail [3] = assay: Test Example 4: herbicidal effect by soil treatment (Table 19, symbol G); format: in vivo, green foxtail (Setaria viridis); details: AAH 320 g/ha
# How it was run: as §2
# barnyard grass [4] = assay: Test Example 4: herbicidal effect by soil treatment (Table 19, symbol H); format: in vivo, barnyard grass (Echinochloa crus-galli); details: AAH 320 g/ha
# How it was run: as §2
# wild oat [5] = assay: Test Example 4: herbicidal effect by soil treatment (Table 19, symbol I); format: in vivo, wild oat (Avena fatua); details: AAH 320 g/ha
# How it was run: as §2
# blackgrass [6] = assay: Test Example 4: herbicidal effect by soil treatment (Table 19, symbol J); format: in vivo, blackgrass (Alopecurus myosuroides); details: AAH 320 g/ha
# How it was run: as §2
# Italian ryegrass [7] = assay: Test Example 4: herbicidal effect by soil treatment (Table 19, symbol K); format: in vivo, Italian ryegrass (Lolium multiflorum); details: AAH 320 g/ha
# How it was run: as §2
# windgrass [8] = assay: Test Example 4: herbicidal effect by soil treatment (Table 19, symbol L); format: in vivo, windgrass (Apera spica-venti); details: AAH 320 g/ha
# How it was run: as §2
# velvetleaf [9] = assay: Test Example 4: herbicidal effect by soil treatment (Table 19, symbol M); format: in vivo, velvetleaf (Abutilon theophrasti); details: AAH 320 g/ha
# How it was run: as §2
# redroot pigweed [10] = assay: Test Example 4: herbicidal effect by soil treatment (Table 19, symbol N); format: in vivo, redroot pigweed (Amaranthus retroflexus); details: AAH 320 g/ha
# How it was run: as §2
# lambsquarters [11] = assay: Test Example 4: herbicidal effect by soil treatment (Table 19, symbol O); format: in vivo, lambsquarters (Chenopodium album); details: AAH 320 g/ha
# How it was run: as §2
# chickweed [12] = assay: Test Example 4: herbicidal effect by soil treatment (Table 19, symbol P); format: in vivo, common chickweed (Stellaria media); details: AAH 320 g/ha
# How it was run: as §2
# false cleavers = assay: Test Example 4: herbicidal effect by soil treatment (Table 19, symbol Q); format: in vivo, false cleavers (Galium spurium); details: AAH 320 g/ha
# How it was run: as §2
# persian speedwell [13] = assay: Test Example 4: herbicidal effect by soil treatment (Table 19, symbol R); format: in vivo, Persian speedwell (Veronica persica); details: AAH 320 g/ha
# How it was run: as §2
# southern crabgrass [14] = assay: Test Example 5: herbicidal effect by foliage application, plastic box (Table 20, symbol F); format: in vivo, southern crabgrass (Digitaria ciliaris); details: foliage application, AAH 320 g/ha, three weeks after application
# How it was run: (§3)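 Post-emergence foliar test in sterilized diluvial soil. Compound applied as water-diluted emulsion at a predetermined rate to 14-day-old plants; evaluation at three weeks.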
# green foxtail [15] = assay: Test Example 5: herbicidal effect by foliage application, plastic box (Table 20, symbol G); format: in vivo, green foxtail (Setaria viridis); details: foliage application, AAH 320 g/ha, three weeks after application
# How it was run: as §3
# barnyard grass [16] = assay: Test Example 5: herbicidal effect by foliage application, plastic box (Table 20, symbol H); format: in vivo, barnyard grass (Echinochloa crus-galli); details: foliage application, AAH 320 g/ha, three weeks after application
# How it was run: as §3
# wild oat [17] = assay: Test Example 5: herbicidal effect by foliage application, plastic box (Table 20, symbol I); format: in vivo, wild oat (Avena fatua); details: foliage application, AAH 320 g/ha, three weeks after application
# How it was run: as §3
# blackgrass [18] = assay: Test Example 5: herbicidal effect by foliage application, plastic box (Table 20, symbol J); format: in vivo, blackgrass (Alopecurus myosuroides); details: foliage application, AAH 320 g/ha, three weeks after application
# How it was run: as §3
# Italian ryegrass [19] = assay: Test Example 5: herbicidal effect by foliage application, plastic box (Table 20, symbol K); format: in vivo, Italian ryegrass (Lolium multiflorum); details: foliage application, AAH 320 g/ha, three weeks after application
# How it was run: as §3
# windgrass [20] = assay: Test Example 5: herbicidal effect by foliage application, plastic box (Table 20, symbol L); format: in vivo, windgrass (Apera spica-venti); details: foliage application, AAH 320 g/ha, three weeks after application
# How it was run: as §3
# velvetleaf [21] = assay: Test Example 5: herbicidal effect by foliage application, plastic box (Table 20, symbol M); format: in vivo, velvetleaf (Abutilon theophrasti); details: foliage application, AAH 320 g/ha, three weeks after application
# How it was run: as §3
# redroot pigweed [22] = assay: Test Example 5: herbicidal effect by foliage application, plastic box (Table 20, symbol N); format: in vivo, redroot pigweed (Amaranthus retroflexus); details: foliage application, AAH 320 g/ha, three weeks after application
# How it was run: as §3
# lambsquarters [23] = assay: Test Example 5: herbicidal effect by foliage application, plastic box (Table 20, symbol O); format: in vivo, lambsquarters (Chenopodium album); details: foliage application, AAH 320 g/ha, three weeks after application
# How it was run: as §3
# chickweed [24] = assay: Test Example 5: herbicidal effect by foliage application, plastic box (Table 20, symbol P); format: in vivo, common chickweed (Stellaria media); details: foliage application, AAH 320 g/ha, three weeks after application
# How it was run: as §3
# persian speedwell [25] = assay: Test Example 5: herbicidal effect by foliage application, plastic box (Table 20, symbol R); format: in vivo, Persian speedwell (Veronica persica); details: foliage application, AAH 320 g/ha, three weeks after application
# How it was run: as §3
compound,measurement,setting,value
CCCC(=O)Oc1c(OC)nn(C)c(=O)c1-c1c(-c2ccc(F)c(C)c2)sc2ccccc12 [1-175],"herbicidal effect on H (barnyard grass), rating 0-5",barnyard grass [1],0 (Herbicidal rate of 5% or less (almost no effect))
same,"herbicidal effect on D (Chinese sprangletop), rating 0-5",Chinese sprangletop,0 (Herbicidal rate of 5% or less (almost no effect))
same,"herbicidal effect on E (rice flat sedge), rating 0-5",rice flat sedge,3 (Herbicidal rate of 40% or more and less than 70%)
same,"F: southern crabgrass, herbicidal effect rating",southern crabgrass [2],0 (Herbicidal rate of 5% or less (almost no effect))
same,"G: green foxtail, herbicidal effect rating",green foxtail [3],1 (Herbicidal rate of 5% or more and less than 20%)
same,"H: barnyard grass, herbicidal effect rating",barnyard grass [4],0 (Herbicidal rate of 5% or less (almost no effect))
same,"I: wild oat, herbicidal effect rating",wild oat [5],0 (Herbicidal rate of 5% or less (almost no effect))
same,"J: blackgrass, herbicidal effect rating",blackgrass [6],0 (Herbicidal rate of 5% or less (almost no effect))
same,"K: Italian ryegrass, herbicidal effect rating",Italian ryegrass [7],2 (Herbicidal rate of 20% or more and less than 40%)
same,"L: windgrass, herbicidal effect rating",windgrass [8],1 (Herbicidal rate of 5% or more and less than 20%)
same,"M: velvetleaf, herbicidal effect rating",velvetleaf [9],3 (Herbicidal rate of 40% or more and less than 70%)
same,"N: redroot pigweed, herbicidal effect rating",redroot pigweed [10],4 (Herbicidal rate of 70% or more and less than 90%)
same,"O: lambsquarters, herbicidal effect rating",lambsquarters [11],4 (Herbicidal rate of 70% or more and less than 90%)
same,"P: chickweed, herbicidal effect rating",chickweed [12],0 (Herbicidal rate of 5% or less (almost no effect))
same,"Q: false cleavers, herbicidal effect rating",false cleavers,0 (Herbicidal rate of 5% or less (almost no effect))
same,"R: persian speedwell, herbicidal effect rating",persian speedwell [13],0 (Herbicidal rate of 5% or less (almost no effect))
same,"F: southern crabgrass, herbicidal effect",southern crabgrass [14],0 (Herbicidal rate of 5% or less (almost no effect))
same,"G: green foxtail, herbicidal effect",green foxtail [15],0 (Herbicidal rate of 5% or less (almost no effect))
same,"H: barnyard grass, herbicidal effect",barnyard grass [16],0 (Herbicidal rate of 5% or less (almost no effect))
same,"I: wild oat, herbicidal effect",wild oat [17],0 (Herbicidal rate of 5% or less (almost no effect))
same,"J: blackgrass, herbicidal effect",blackgrass [18],0 (Herbicidal rate of 5% or less (almost no effect))
same,"K: Italian ryegrass, herbicidal effect",Italian ryegrass [19],0 (Herbicidal rate of 5% or less (almost no effect))
same,"L: windgrass, herbicidal effect",windgrass [20],0 (Herbicidal rate of 5% or less (almost no effect))
same,"M: velvetleaf, herbicidal effect",velvetleaf [21],3 (Herbicidal rate of 40% or more and less than 70%)
same,"N: redroot pigweed, herbicidal effect",redroot pigweed [22],0 (Herbicidal rate of 5% or less (almost no effect))
same,"O: lambsquarters, herbicidal effect",lambsquarters [23],0 (Herbicidal rate of 5% or less (almost no effect))
same,"P: chickweed, herbicidal effect",chickweed [24],5 (Herbicidal rate of 90% or more (almost completely withered))
same,"R: persian speedwell, herbicidal effect",persian speedwell [25],4 (Herbicidal rate of 70% or more and less than 90%)
